Data: the supplement of paper PMC11451515

Experiments:
Conditions in all cases: 48 h
NOMO1 [1] = test: cell viability relative to DMSO control; higher = less cytotoxic
Summary of the method: (§1)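 Three leukemia lines were tested: NOMO1 and SEM at 500 cells/well and P12-Ichikawa at 1000 cells/well. Each was adapted for at least four passages in each medium and seeded in 5 μl in 1536-well plates, and library compounds in DMSO were pin-dosed from 47 μM to 0.79 nM in 11 threefold steps. After 48 h at 37°C, CellTiter-Glo One luminescence was read. Viability is a percentage relative to DMSO wells on each plate, with cell-free wells as background.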

NOMO1 [2] = test: AUC of viability dose-response curve (% viability x log10 dose units); higher = less sensitive
Summary of the method: (§2)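 Leukemia cells adapted to each medium (500 or 1000 cells/well, 1536-well plates) were exposed to library compounds in DMSO for 48 h at 37°C at 11 threefold doses, 47 μM to 0.79 nM. Luminescence by CellTiter-Glo One was normalised per plate to DMSO and cell-free wells, then fitted with a four-parameter log-logistic curve on log10 dose. Curves above full viability were scaled and quality-control failures removed before area under the curve was integrated by trapezoidal rule.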

P12-Ichikawa [3] = test: as above
Summary of the method: as §2

SEM cells [4] = test: as above
Summary of the method: as §2

SEM cells [5] = test: cell viability relative to DMSO control; higher = less cytotoxic
Summary of the method: as §1

P12-Ichikawa [6] = test: as above
Summary of the method: as §1

Cc1cc(CN2CCN(c3c(Br)cnc4[nH]c(-c5ccc(N6CCN(C)CC6)cc5)nc34)CC2)no1
NOMO1 [1], RPMI 5 mM glucose + 10% FBS
Conditions	cell viability [%]
0.000781 µM	120
0.00234 µM	131
0.00702 µM	120
0.0211 µM	129
0.0632 µM	138
0.19 µM	117
0.569 µM	113
1.71 µM	70.2
5.12 µM	102
15.4 µM	78.1
46.1 µM	80.6

AUC of viability dose-response curve
Conditions	NOMO1 [2]	P12-Ichikawa [3]	SEM cells [4]
HPLM + 10% dialyzed FBS	377	329	317
RPMI 5 mM glucose + 10% FBS	415	333	310
RPMI 5 mM glucose + 10% dialyzed FBS	410	348	307

NC1(c2ccc(-c3nc4ccn5c(=O)[nH]nc5c4cc3-c3ccccc3)cc2)CCC1
SEM cells [5], HPLM + 10% dialyzed FBS
Conditions	cell viability [%]
0.000781 µM	123
0.00234 µM	138
0.00702 µM	125
0.0211 µM	74.7
0.0632 µM	125
0.19 µM	104
0.569 µM	78.3
1.71 µM	65.1
5.12 µM	43.8
15.4 µM	37.9
46.1 µM	14.4

AUC of viability dose-response curve
Conditions	NOMO1 [2]	P12-Ichikawa [3]	SEM cells [4]
HPLM + 10% dialyzed FBS	392	396	322
RPMI 5 mM glucose + 10% FBS	451	366	318
RPMI 5 mM glucose + 10% dialyzed FBS	423	361	298

CO[C@H]1/C=C/O[C@@]2(C)Oc3c(C)c(O)c4c(O)c(c5c(nc6cc(C)ccn65)c4c3C2=O)NC(=O)/C(C)=C\C=C\[C@H](C)[C@H](O)[C@@H](C)[C@@H](O)[C@@H](C)[C@H](OC(C)=O)[C@@H]1C
cell viability [%]
Conditions	NOMO1 [1]	P12-Ichikawa [6]	SEM cells [5]
HPLM + 10% dialyzed FBS, 0.000781 µM	104	108	100
HPLM + 10% dialyzed FBS, 0.00234 µM	119	98.3	97.7
HPLM + 10% dialyzed FBS, 0.00702 µM	112	107	100
HPLM + 10% dialyzed FBS, 0.0211 µM	96.1	106	107
HPLM + 10% dialyzed FBS, 0.0632 µM	116	107	92.5
HPLM + 10% dialyzed FBS, 0.19 µM	110	106	112
HPLM + 10% dialyzed FBS, 0.569 µM	96	104	113
HPLM + 10% dialyzed FBS, 1.71 µM	93.8	102	104
HPLM + 10% dialyzed FBS, 5.12 µM	35.5	50.2	47.2
HPLM + 10% dialyzed FBS, 15.4 µM	91.7	89.4	70
HPLM + 10% dialyzed FBS, 46.1 µM	11.1	9.34	1.92
RPMI 5 mM glucose + 10% FBS, 0.000781 µM	107	103	106
RPMI 5 mM glucose + 10% FBS, 0.00234 µM	99.1	103	120
RPMI 5 mM glucose + 10% FBS, 0.00702 µM	97.7	113	109
RPMI 5 mM glucose + 10% FBS, 0.0211 µM	110	102	125
RPMI 5 mM glucose + 10% FBS, 0.0632 µM	82.7	114	94.9
RPMI 5 mM glucose + 10% FBS, 0.19 µM	105	101	102
RPMI 5 mM glucose + 10% FBS, 0.569 µM	87.6	94.1	115
RPMI 5 mM glucose + 10% FBS, 1.71 µM	98.7	103	111
RPMI 5 mM glucose + 10% FBS, 5.12 µM	43.8	46.5	40.5
RPMI 5 mM glucose + 10% FBS, 15.4 µM	91.4	72.8	63.1
RPMI 5 mM glucose + 10% FBS, 46.1 µM	44.9	35.1	4.47
RPMI 5 mM glucose + 10% dialyzed FBS, 0.000781 µM	99.4	105	104
RPMI 5 mM glucose + 10% dialyzed FBS, 0.00234 µM	97.8	100	109
RPMI 5 mM glucose + 10% dialyzed FBS, 0.00702 µM	95.3	101	98.6
RPMI 5 mM glucose + 10% dialyzed FBS, 0.0211 µM	108	99.9	109
RPMI 5 mM glucose + 10% dialyzed FBS, 0.0632 µM	86.3	101	90.2
RPMI 5 mM glucose + 10% dialyzed FBS, 0.19 µM	108	97.7	96.8
RPMI 5 mM glucose + 10% dialyzed FBS, 0.569 µM	99.9	102	97.1
RPMI 5 mM glucose + 10% dialyzed FBS, 1.71 µM	99.7	92.9	82.1
RPMI 5 mM glucose + 10% dialyzed FBS, 5.12 µM	28.9	41.8	32
RPMI 5 mM glucose + 10% dialyzed FBS, 15.4 µM	82.3	77.3	50.8
RPMI 5 mM glucose + 10% dialyzed FBS, 46.1 µM	18.6	33.7	1.61

SEM cells [4]
Conditions	AUC of viability dose-response curve
HPLM + 10% dialyzed FBS	410
RPMI 5 mM glucose + 10% FBS	394
RPMI 5 mM glucose + 10% dialyzed FBS	375

C[C@@H](NC1=CC=CC=C1C(O)=O)C/2=C/C(=C\N3C(=O)/C=C(\N=C23)N4CCOCC4)C
cell viability [%]
Conditions	NOMO1 [1]	P12-Ichikawa [6]	SEM cells [5]
HPLM + 10% dialyzed FBS, 0.000781 µM	81.1	87.2	69.7
HPLM + 10% dialyzed FBS, 0.00234 µM	88.7	87	76.5
HPLM + 10% dialyzed FBS, 0.00702 µM	89.8	101	91.3
HPLM + 10% dialyzed FBS, 0.0211 µM	93.6	94.1	77.7
HPLM + 10% dialyzed FBS, 0.0632 µM	99.7	95.9	87.8
HPLM + 10% dialyzed FBS, 0.19 µM	81.6	93.2	77.7
HPLM + 10% dialyzed FBS, 0.569 µM	82.6	97.1	84.3
HPLM + 10% dialyzed FBS, 1.71 µM	61.7	89.3	79.1
HPLM + 10% dialyzed FBS, 5.12 µM	40.3	75	61.1
HPLM + 10% dialyzed FBS, 15.4 µM	29.4	60.5	13.4
HPLM + 10% dialyzed FBS, 46.1 µM	11.7	39.9	19.8
RPMI 5 mM glucose + 10% FBS, 0.000781 µM	79.1	82.4	89.1
RPMI 5 mM glucose + 10% FBS, 0.00234 µM	73.6	78.7	92.3
RPMI 5 mM glucose + 10% FBS, 0.00702 µM	79.9	83.5	117
RPMI 5 mM glucose + 10% FBS, 0.0211 µM	91.2	97.1	92.8
RPMI 5 mM glucose + 10% FBS, 0.0632 µM	88.2	92.1	104
RPMI 5 mM glucose + 10% FBS, 0.19 µM	87.5	84.7	90.6
RPMI 5 mM glucose + 10% FBS, 0.569 µM	78	85.7	98.2
RPMI 5 mM glucose + 10% FBS, 1.71 µM	77.7	72.2	87.5
RPMI 5 mM glucose + 10% FBS, 5.12 µM	48.3	59.2	55
RPMI 5 mM glucose + 10% FBS, 15.4 µM	27.7	47.9	8.88
RPMI 5 mM glucose + 10% FBS, 46.1 µM	11.1	27.6	13.3
RPMI 5 mM glucose + 10% dialyzed FBS, 0.000781 µM	74.8	77.7	65
RPMI 5 mM glucose + 10% dialyzed FBS, 0.00234 µM	82.9	85.3	76.4
RPMI 5 mM glucose + 10% dialyzed FBS, 0.00702 µM	95.2	93.1	91.7
RPMI 5 mM glucose + 10% dialyzed FBS, 0.0211 µM	88.9	92.9	87
RPMI 5 mM glucose + 10% dialyzed FBS, 0.0632 µM	87.8	90.5	92.7
RPMI 5 mM glucose + 10% dialyzed FBS, 0.19 µM	93.4	88.4	77.8
RPMI 5 mM glucose + 10% dialyzed FBS, 0.569 µM	83	80	70.3
RPMI 5 mM glucose + 10% dialyzed FBS, 1.71 µM	65.2	87.4	63.9
RPMI 5 mM glucose + 10% dialyzed FBS, 5.12 µM	41.8	61.9	44.1
RPMI 5 mM glucose + 10% dialyzed FBS, 15.4 µM	33.1	46.3	9.08
RPMI 5 mM glucose + 10% dialyzed FBS, 46.1 µM	7.82	33.1	11.2

AUC of viability dose-response curve
Conditions	HPLM + 10% dialyzed FBS	RPMI 5 mM glucose + 10% FBS	RPMI 5 mM glucose + 10% dialyzed FBS
NOMO1 [2]	338	331	336
P12-Ichikawa [3]	407	359	370
